# Measurements: patent EP0597838B1, “VACCINE COMPOSITIONS” (NORTH AMERICAN VACCINE, INC., priority 1990, dated 1991)
# Test system: hepatitis B surface antigen
# Assay: Antibody response to hepatitis B surface antigen with octadecyl amino acid immunoadjuvants, radioimmunoassay of sera
# Format: in vivo, BALB/c mice
# Conditions: 50 ng HBsAg i.m. day 1, boost 35 ng day 21, 100 µg octadecyl amino acid
# Description: BALB/c mice were immunized with 50 ng of hepatitis B surface antigen in the presence of adjuvant for the non-control mice and in the absence of adjuvant for the control mice. The hepatitis B surface antigen was obtained from 3T3 cells transfected with the gene for the surface antigen. 100 µg of octadecyl amino acid was complexed with the polypeptide as described in Example 2. This mixture, in a total volume of 0.1 ml, was injected on day 1 using an intramuscular route, and the mice were bled on days 7, 14, 21, 28, 35, 42 and 61. The mice were boosted with 35 ng of the polypeptide on day 21.
# The antibody concentration in the sera was determined by radioimmunoassay. The antibody concentration was estimated by comparison with a standard curve obtained using a monoclonal antibody.
Compound,Anti-HBsAg antibody concentration (day 7) [ng/mL],Anti-HBsAg antibody concentration (day 14) [ng/mL],Anti-HBsAg antibody concentration (day 21) [ng/mL],Anti-HBsAg antibody concentration (day 28) [ng/mL],Anti-HBsAg antibody concentration (day 35) [ng/mL],Anti-HBsAg antibody concentration (day 61) [ng/mL]
CCCCCCCCCCCCCCCCCCOC(=O)CN,47,38,51,147,748,301
CCCCCCCCCCCCCCCCCCOC(=O)C(N)CC(C)C (stereo not drawn),48,42,37,160,590,496
CCCCCCCCCCCCCCCCCCOC(=O)C1CCCN1 (stereo not drawn),49,35,41,72,409,168
CCCCCCCCCCCCCCCCCCOC(=O)CCN,31,45,44,120,337,373
CCCCCCCCCCCCCCCCCCOC(=O)C(N)CCCCN (stereo not drawn) [Octadecyl Lysine],33,55,39,51,67,53
Octadecyl Forphenicine,100,112,116,908,592,355
Octadecyl Forphenicinol,31,40,26,65,306,98
